Experimental data as given in a melting point compilation (Tetko et al.; mined from patent text by program, amines drawn as free bases though some values may be those of a salt).

Structure (SMILES) | melting point [°C]
CCCCCCCCCCNCC(O)CO (stereo unspecified) | 65 to 67
Cn1cc(Oc2ccc(Cl)cc2Cl)c(=O)c(-c2cccc(C(F)(F)F)c2)c1 | 129 to 130
Cc1c(OC(=O)C(C)(C)C)c(=O)ccn1C | 112 to 113
Cc1cc(C)c(C(C)(C)O)c(C)c1 | 106 to 107
CCCCC(=O)Nc1cccc2c1C(=O)N(C1(C)CCC(=O)NC1=O)C2=O (stereo unspecified) | 190 to 192
O=C1Cc2cc(C3=NNC(=O)C4CC34)ccc2N1 (stereo unspecified) | 305 to 307
Fc1ccc(Nc2ncnc3[nH]c(-c4ccc(CCl)cc4)cc23)cc1Cl | > 300
OC1(C(F)(F)F)ON=C(c2ccc(Cl)cc2)C1Cl (stereo unspecified) | 126 to 127
CCCCOc1c(OC)c(OC)cc(C)c1C(=O)c1c(Cl)cccc1Cl | 70
CN(C(=O)Nc1ccc(Cl)c(Cl)c1)S(=O)(=O)CCl | 119
CCOC(=O)c1cnc(Cl)cc1NC | 61.4 to 63.1
CSc1nn(C(C)(C)C)c(=O)c(Cl)c1C1C=CC(C(C)(C)C)CC1 (stereo unspecified) | 82 to 84
O=C(CCCN1CCOCC1)c1ccc2oc3ccc(C(=O)CCCN4CCOCC4)cc3c2c1 | 98 to 99
COc1cnc(C)c(C)c1OC | 36 to 38
Cc1c(C)c(N2CCN(c3ccc(C#N)cc3)CC2)c(C)c2c1OC(C)(C)C2 | 255 to 257
C=COC(=O)N=c1sc2cc(OC(F)(F)F)ccc2n1CCO | 190
CC(=O)Nc1cccc(CNc2nc(Nc3cccc(NS(C)(=O)=O)c3)nc3[nH]cnc23)c1 | 159 to 162
CCOC(=O)C(NC(=O)OC(C)(C)C)C(c1ccc(O)cc1)S(=O)(=O)C(F)(F)F (stereo unspecified) | 47 to 49
COc1ccc(COCCC(C)=O)cc1 | 48 to 49
CC(C)=CCOc1c(-c2ccc(S(C)(=O)=O)cc2)cnn(-c2cccc(Cl)c2)c1=O | 113 to 115
CC(C)(C)C(=O)c1ccc(S(=O)(=O)C[N+](=O)[O-])s1 | 98 to 99

Structure (SMILES) | melting point [°C]
COc1ccc(-c2cccc3c2C2(COc4cc5c(cc42)OCO5)C(=O)N3Cc2ccc(C(F)(F)F)o2)cn1 (stereo unspecified) | 174 to 176
COc1ccc2c3c1OC1C(O)C(C)(C)CC4C(C2)N(C)CCC341 (stereo unspecified) | > 265
CCOC(=O)c1cnn(-c2cc(C)cc(C)c2)c1S(C)(=O)=O | 120 to 122
CCOC(=O)c1cc(Br)cc(C(=O)OCC)n1 | 95 to 96
O=C(CN1C(=O)C(Cl)=C(Cl)C1=O)Nc1ccc(Cl)cc1 | 212 to 214
COC(=O)C1(C(C)C)Oc2c(OC)cccc2C1=O (stereo unspecified) | 87 to 88
COc1cc(OC)nc(Oc2ccccc2C(=O)OC(=O)c2ccccc2Oc2nc(OC)cc(OC)n2)n1 | 120 to 122
CCCCCCCCCCCCCc1nc(N)no1 | 90 to 91
COc1cc2c(cc1OC)N(C)C(=O)CNC2=O | 260 to 263
COc1ccc(C2CNC(=O)O2)cc1OC1CCCC1 (stereo unspecified) | 111 to 112
COC(=O)c1sc(C)cc1C | 98 to 101
CC12CCC(O)CC1CCC1C2CCC2(C)C(C=NNC(N)=O)CCC12O (stereo unspecified) | 222 to 226
CC(C)(CO)CCCCC(O)CCCCC(C)(C)CO | 72 to 74
CN(C)C(=O)CC1(O)C(=O)Nc2ccc(I)cc21 (stereo unspecified) | 246
CCCn1cc(C(=O)OCC)c(=O)c2cc(CN3CCOCC3)oc21 | 195 to 196
Nc1cc(F)c([N+](=O)[O-])cc1F | 153
Cc1cccc(N=NC2=NCCS2)c1C | 74 to 79
O=C(Nc1ccc(OC(F)F)cc1)N1N=C(c2ccc(Cl)cc2)CC1c1ccc(Cl)cc1 (stereo unspecified) | 174
Cn1c(C(=O)c2ccc(Cc3ccc(F)cc3)o2)c(O)c(=O)n1C | 110 to 111
O=C1Nc2cccc(I)c2C(=O)N2CCC[C@@H]12 | 212 to 215
CCCOc1c(OC)cc(C(C#N)CCC(C#N)c2cc(OC)c(OC)c(OC)c2)cc1SC (stereo unspecified) | 131 to 132

Structure (SMILES) | melting point [°C]
Cc1cc([N+](=O)[O-])ccc1NCCNC(N)=O | 186
CC1=C(C(=O)OC(C)(C)C)C(c2cccc(Cl)c2Cl)C(C(=O)OC(C)(C)C)=C(C)N1 | 144 to 145
O=C1c2c(O)cccc2C(SCCS)c2cccc(O)c21 | 133 to 134
CCC(CC)Nc1c([N+](=O)[O-])cc(C)c(COC(C)=O)c1[N+](=O)[O-] | 47 to 49
Fc1ccc(Cn2c(N3CCC(Nc4nc5ccccc5n4Cc4ccccc4)CC3)nc3ccccc32)cc1 | 164
CCCCc1nc(Cl)c(CC(=O)O)c(Cc2ccc(C(=O)O)cc2)n1 | 205
CCCCc1nc2c(C#N)ncc(C)c2[nH]1 | 197 to 198
COc1cc(NC(C)C)ccc1CN1C(=O)C(C)(c2ccccc2Cl)c2cc(Cl)ccc21 (stereo unspecified) | 137
NCCCCCCO[PH](=O)CC(=O)O (stereo unspecified) | 236 to 238
CCCc1ccc(S(=O)(=O)c2ccc(F)cc2)cc1S(=O)(=O)NCCc1ccncc1 | 160 to 162
O=c1cc(C(F)(F)F)nc(Nc2cc(C(F)(F)F)ccc2C(F)(F)F)n1C1CCCCC1 | 154 to 156
C=CCOc1ccc2c(c1)CCNC2=O | 105 to 107
N#Cc1c(O)nc2ccc(Cl)cc2c1O | 275 to 277
CC(C)(C)OC(=O)Nc1nc2cc(N)ccc2[nH]1 | 168
O=S1(=O)NCN(CCF)c2cc(Cl)c(Cl)cc21 | 156 to 157
O=c1[nH]c(C=Cc2ccc([N+](=O)[O-])o2)nc2ccccc12 | 327
CN1Cc2c(I)ncn2-c2ccc(F)cc2C1=O | 187 to 188
COc1cc(OC)nc(Oc2ccc(N(C)C)nc2C(=O)O)n1 | 195 to 198
CCOC(=O)c1cc([N+](=O)[O-])cc(Br)c1O | 108
CC(C)S(=O)(=O)c1ccc2c(c1)nc(CC(C)(C)C)n2CC1(O)CCOCC1 | 189

Now from value to compound:

melting point [°C] | Structure (SMILES)
193 to 195 | O=C1C(c2cc3c(cc2O)OCCCO3)c2ccccc2N1C(c1ccccc1)c1ccccc1 (stereo unspecified)
125 to 130 | CCCCC(C)OC(=O)c1ccccc1S(=O)(=O)NC(=O)Nc1nc(C)nc(OC)n1 (stereo unspecified)
83 to 84 | C#CCN(C)C(=S)Nc1ccccc1CC(=O)OC
235 to 237 | COC(=O)c1ccccc1-n1c(CCl)nc2ccc(Br)cc2c1=O
128 to 130 | CC(C)C[C@H](O)[C@H](O)[C@H](Cc1ccccc1)NC(=O)OC(C)(C)C
209 | COc1cnc(C(=O)O)cc1Cl
192 to 194 | CSc1nc(NC(=O)NS(=O)(=O)c2ccccc2C(=O)OC(C)C)nn1C
88.5 to 90 | CN(C)CCOc1ccc(N(C(=O)c2ccc(F)cc2)c2ccccc2)cc1
97 to 98 | COc1cc2c(cc1OCc1ccccc1)CCN(Cc1ccccc1)C2
81 to 85 | COc1ccc2c(c1)C(C)(C)[C@H]1CCCN(C(C)=O)[C@H]1C2 (relative stereo)
186 to 187 | CC(=O)Nc1c(N(C)C)cnn(-c2ccccc2)c1=O
102 | CCOC(=O)C(O)CSc1ccc(-c2ccccc2)cc1 (stereo unspecified)
167 to 169 | Cc1ccc2nc(SCc3ccccn3)n(-c3ccccc3)c(=O)c2c1
159 to 162 | CCOC(=O)Nc1ccc(C(=O)OC)cc1
131 to 134 | O=C(O)C1CSC(c2ccccc2OCCCO[N+](=O)[O-])N1 (stereo unspecified)
195 | O=C1Cc2cc(NC(=O)C(=O)N3CCC(Cc4ccc(Cl)cc4)CC3)ccc2N1
71 | Cc1ccc(SCc2noc(-c3ccccc3)n2)cc1
202 | COc1ccc2c(c1)c(CC(O)(P(=O)(O)O)P(=O)(O)O)c(C)n2C(=O)c1ccc(Cl)cc1
216 to 219 | CN1CCc2c(c3ccccc3n2CCc2n[nH]c(=S)n2C)C1
268 to 269 | O=C(O)c1csc(-c2ccccc2O)n1
168 | Cc1cnc2c(c1)CCCC2NC(=S)NC(=O)c1ccccc1 (stereo unspecified)
149 to 150 | O=C(O)CCc1conc1-c1ccc(Cl)cc1

melting point [°C] | Structure (SMILES)
94 to 95 | CCCn1c(=Nc2ccccc2)sc2ncccc2c1=O
109 to 113 | CN1CCN(c2cc(Cl)cc3c2c(=O)n(Cc2ccc([N+](=O)[O-])cc2)c(=O)n3Cc2ccccc2)CC1
220 to 224 | CC(C)n1nc(-c2nc(Br)c(N=S(C)C)nc2-c2ccccc2)ccc1=O
177 | Cc1cc(C#N)cc(C(=O)Nc2ccc(F)c(C)c2)n1
95 to 96 | COC(=O)c1ccc(C=O)c2ccccc12
176 to 177 | CC1(C)CN=C(c2cc3cccc(NS(=O)(=O)c4cccs4)c3[nH]2)S1
146 to 147 | Cn1cc(-c2ccc(F)cc2)c(C(=O)O)n1
205 to 207 | O=C(CCc1ccccc1)NCC(=O)N1c2ccccc2N(Cc2ccccc2)C(=O)[C@H]2CCC[C@H]21 (relative stereo)
227 to 228 | Clc1ccc2[nH]c3c(c2c1)CN(CCCCc1ccncc1)CC3
229 to 230 | CCn1nc(-c2ccccc2)c(C(C)=O)c(Nc2cnccn2)c1=O
90 to 92 | ClC(Cl)(Cl)C1Nc2ccccc2CO1 (stereo unspecified)
107 to 110 | CCOC(=O)C1=Cc2cc(-c3ccc(C(F)(F)F)cc3)ccc2OCC1
121 to 122 | CCCc1c(OCc2ccccc2)ccc2c(=O)cc(C(=O)OCC)[nH]c12
119 to 121 | O=C1COC[C@@H](c2cccc(F)c2)N1
111 to 113 | O=C1N(CCCC2CC2)c2ccccc2C12COc1cc3c(cc12)OCO3 (stereo unspecified)
135 to 137 | c1ccc(-c2cn3ccccc3n2)cc1
220 to 222 | CC(=O)NCC(C)(C)c1ccc(C(=O)Nc2cn3cc(Cl)ccc3n2)cc1
70 to 72 | O=C(Nc1ccc(OCCCN2CCNCC2)c2ccccc12)c1cc(F)cc(N2CCCCC2)c1
142 | O=C(O)C1Sc2ccccc2-c2[nH]c3ccccc3c21 (stereo unspecified)
134 to 139 | Cc1cc(Nc2ccccc2)nc(-n2nc(C)cc2C)n1
59 to 63 | CCOC(=O)C1=Cc2cc(-c3ccc(OC(F)(F)F)cc3)ccc2OCC1
74 to 75 | COC(=O)CN(C=O)C1c2ccccc2CCC1(C)C (stereo unspecified)
